No end group written: not given here.
Columns and labels:
STAT3 = STAT3 phosphorylation in PASMCs (conditioned media from PAECs or endothelin-1; immunoblot); type: cell-based, human; settings: direct exposure to endothelin-1
Method: (§1) (FIG. 40A) A schematic diagram of co-culture experiments: conditioned media from transfected PAECs (miRNA, anti-miRNA, tiny-LNA or siRNA under normoxic or hypoxic conditions) were filtered and applied onto naïve PASMCs cultured in matrigel. At specific times, PASMCs or PASMC-matrigel cultures were arrested and analyzed for STAT3 activation (phosphorylation) or contraction, respectively.
(§2) 50000 PASMC were embedded in 100 ul of matrix gel as previous described (Gagiolli et al) and plated into well of a 96 well plate. After 1 h at 37° C., these matrices were overlaid with 100 ul of conditioned PAECs serum-free medium (transfected with siRNA, miRNA or anti-miRNA and supplemented with Ambriesentan 10 uM). Every 12 h, medium was changed and at day 4 the gels were photographed and the relative diameter of the well and the gel were measured using ImageJ. The percentage contraction was calculated using the formula 100*(well diameter−gel diamter)/well diameter. For the co-culture experiment, conditioned media from PAEC transfected as indicated were applied on PASMCs or Fibroblast previously starved (24 h). Cells were collected at different time and analyzed by western blotting.
Cells were lysed in RIPA buffer (Santa Cruz Biotechnology) and the protein concentration determined using a Bradford assay (Biorad). Protein lysate ([…]) were resolved by SDS-PAGE and transferred onto a PVDF membrane (Biorad). Membranes were blocked in 5% non-fat milk in TN buffer (50 mM Tris-HCl pH 7.4, 150 mM NaCl) and incubated in the presence of the primary and then secondary antibodies. After washing in TN buffer containing 0.1% Tween, immunoreactive bands were visualized with the ECL system (Amersham Biosciences). […] Primary antibodies for STAT3 (#9139) and P-STAT3 (Tyr-705; #9145) were purchased from Cell Signaling. Primary antibodies against actin (ab 3280), was obtained from Abcam. Appropriate secondary antibodies (anti-rabbit and anti-mouse) coupled to HRP were used (Santa Cruz Biotechnology).

PASMCs = assay: Contraction assay of PASMCs in matrigel; type: cell-based, human; settings: endothelin-1 for 4 days vs vehicle
Method: as §1, §2

Substance: endothelin-1: recombinant human EDN1 applied to PASMCs at 1 nM (CSCSSLMDKECVYFCHLDIIW; ends and bridges not checked; cysteine pairing not given here; UniProt P05305 53-73, looked up)
- STAT3 phosphorylation in PASMCs (STAT3): time-dependent increase
- STAT3 phosphorylation in PASMCs (STAT3; listed as EDN1): increased
- matrigel contraction of PASMC culture (PASMCs): led to matrigel contraction
- matrigel contraction of PASMC culture (PASMCs; listed as EDN1): increased
